Values of other authors in patent US9907752B2, “Bendamustine solid dispersions and continuous infusion” (priority 2014, dated 2018).
In brackets after ≈: the same amount, converted by molar mass.

Assays:
[1] = aqueous solution

Cn1c(CCCC(=O)O)nc2cc(N(CCCl)CCCl)ccc21 [bendamustine, 4-{5-[Bis(2-chloroethyl)amino]-1-methyl-2-benzimidazolyl}butyric acid]
hydrolysis reaction half times [1]: measured in hours rather than seconds

OC[C@@H](O)[C@@H](O)[C@H](O)[C@H](O)CO [mannitol]
solubility in DMSO (DMSO): ~36 mg/mL (≈ 198 mM)
solubility in water (water): ~36 mg/mL (≈ 198 mM)
